Results as given in ChEMBL document CHEMBL6127087 (Eur J Med Chem, 2024).

What was measured:
[1] = Tmax in male Sprague-Dawley rat at 10 mg/kg, iv measured after 24 hrs by LC-MS/MS analysis; type: ADME, organism-based; conditions: male, Sprague-Dawley, in vivo, read-out: Tmax (converted)
[2] = Clearance in male Sprague-Dawley rat at 20 mg/kg, po measured after 24 hrs by LC-MS/MS analysis; type: ADME, organism-based; conditions: in vivo
HEK-293T = experiment: Cytotoxicity against HEK293T cells assessed as reduction in cell survival at >10 uM incubated for 12 to 24 hrs by CCK8 assay; type: toxicity, cell-based; conditions: human, time 12-24 hrs

Structure (SMILES): O=C(O)CCC(=O)N1N=C(c2ccc[nH]2)CC1c1cnc2ccccc2c1 (stereo not drawn)
- Tmax [1]: 28 min
- CL/F [2]: 28.3 mL/min/kg
- Activity (HEK-293T): Non-Toxic
